According to patent EP0624368A2, “Use of a composition for stimulating the synthesis of glutathione in the manufacture of a medicament for the treatment of acquired immune deficiency syndrome” (priority 1993, dated 1994):

Legend:
mice [1] = assay: Bone marrow smear evaluation in treated mice
HIV-1 (strain IIIB) [2] = assay: HIV p24 antigen assay in H-9 cells (single and combination treatment); assay type: cell-based; settings: H-9, 80 IU/well HIV
Description: (§1) Three cell culture systems were used in this study: H-9 cells; MT-2 cells; and normal human peripheral blood mononuclear cells (PBMC). H-9 cells were obtained from Advanced Biotechnology Inc. (ABI). MT-2 cells were obtained from Dr. J. Armstrong of the University of Pittsburgh. MT-2 cells are HTLV-I transformed human T lymphocytes and continuously produce HTLV-I virions. PBMC were obtained from healthy donors, purified by Ficol-Hypaque, and stimulated with PHA mitogen before being used in the efficacy studies. The initial stock of HIV-1 (strain IIIB) used in this study was obtained from ABI and the working stocks were produced.
(§2) Cells were collected, put into tissue culture plates and incubated with different concentrations of drugs in RPMI 1640 tissue culture medium for 20 minutes prior to HIV challenge. Infection was carried out by inoculating 20-100 HIV infectious units (IU)/well inoculum without removing the drugs. The untreated cells exposed to HIV challenge served as positive controls. The normal untreated uninfected cells served as negative controls.
(§3) When evaluating the efficacies of drugs in H-9 cells and PBMC systems, only HIV p24 assays were used. To calculate the ED₅₀ values, a second order linear regression was applied on the logarithm of the tested doses of different drugs against the OD readings obtained from either MTT assays or HIV p24 assays.
(§4) Cells were collected, put into tissue culture plates and incubated with different combinations of drugs for 20 minutes prior to HIV infection in the combined treatment studies. Infection was carried out by inoculating 20-100 HIV IU/well inoculum without removing the drugs. The inocula were the same as the ones used in the single drug treatment to obtain the ED₅₀ values. Both MTT assays and HIV p24 antigen assays were used in evaluation of drug effects in MT-2 cells but only HIV p24 antigen assays were used for H-9 cells or PBMC.
(§5) Therefore, if the CI is less than 1, it indicates synergism among the tested drugs. Similarly, if the CI is equal to 1, the effects are additive, while a CI value greater than 1 is indicative of an antagonistic effect.

HIV-1 (strain IIIB) [3] = assay: MTT assay of protection against acute HIV infection in MT-2 cells; assay type: cell-based; settings: 100 IU/well HIV; for OD readings at 540 nm (MTT assay): MT-2, Day 6 cultures
Description: as §1, §2
Both the MTT assay and HIV p24 ELISA were used for evaluation of drug efficacies with MT-2 cells. The MTT assay is based upon the metabolic reduction of the MTT tetrazolium bromide dye in live cells. The OD readings (at 540 nm) obtained from the MTT assay are inversely correlated to the levels of cell mortality due to HIV infection or the cytotoxic effect of drugs. […] The HIV p24 antigen assay measures the level of HIV antigen present in the sample (i.e., culture supernatant).
as §3

mice [4] = assay: Bone marrow aspirate count and stem cell colony assay in treated mice; assay type: in vivo
Method: Populations of bone marrow colony forming cells were evaluated. Bone marrow was collected and the stem cell assay conducted, as follows: one femur per mouse was cut at the distal and proximal ends. Using a syringe and 25 gauge needle, 5 mL of IMDM media was flushed through the femur into a collection tube (2.5 mL flushed into one end, then 2.5 ml into the other end). The tube was washed using Iscove's Modified Dulbecco's Media containing 20% fetal bovine serum and the cell concentration was adjusted to the desired count for the colony assay.
In triplicate, the marrow cells were put into a mixture of methylcellulose and plated into 35 mm diameter dishes. The dishes were incubated for approximately 2 weeks (37°C, 5% CO₂, 100% relative humidity) then manually scored under a microscope for myeloid, erythroid, and mixed colonies.

mice [5] = assay: Hematology of terminal blood in mice treated with AZT with or without Procysteine diet; assay type: in vivo; settings: both sexes, AZT 50 or 500 mg/kg body weight/day by gavage 14 days, 1.0% Procysteine® diet in combination groups, p<0.01
Method: On study day 17, the animals were anesthetized with methoxyflurane (in a bell jar). When deeply anesthetized, blood was obtained from the abdominal aorta and transferred for hematological analysis into tubes containing an K₂EDTA suspension.
The following assays were conducted. Leukocyte count Erythrocyte count Total hemoglobin concentration Hematocrit Mean corpuscular volume (MCV) Mean corpuscular hemoglobin (MCH) Mean corpuscular hemoglobin concentration Platelet count Reticulocyte count Differential leukocyte count

HIV-1 (strain IIIB) [6] = assay: HIV p24 antigen assay in PBMC (single and combination treatment); assay type: cell-based; settings: 50 IU/well HIV
Description: as §1, §2, §3, §4, §5

[7] = 10⁴ nucleated cells cultured 14 days

- total count of erythroid series cells in bone marrow smears (mice [1]; AZT 50 or 500 mg/kg body weight/day, 1.0% Procysteine® diet in combination groups): reduced total count
- rubriblasts in bone marrow smears (mice [1]; AZT-treated): mild reduction
- burst forming units-erythroid for marrow cultures (mice [4]; [7]): No group differences
- total colonies and colony forming units-granulocyte/macrophage (mice [4]; [7]): significant induction
- nucleated cells in bone marrow aspirates (mice [4]; AZT 50 or 500 mg/kg body weight/day, compared to controls): significant reduction
- hematological effects in terminal blood (hemoglobin, hematocrit, erythrocyte counts decreased; MCV, MCH increased) (mice [5]): Anemia
SMILES: Cc1cn([C@H]2C[C@H](N=[N+]=[N-])[C@@H](CO)O2)c(=O)[nH]c1=O [AZT]
- metarubricytes (nonproliferating) in bone marrow smears (mice [1]; AZT-treated): marked reduction
- nonproliferating compartment of the myeloid series (mice [1]; bone marrow smears): reduction
- proliferating compartment of the myeloid series (mice [1]; bone marrow smears): significantly increased
- OD readings at 450 nm (HIV p24 antigen) (HIV-1 (strain IIIB) [2]; 0.0025 μM): 4.133
- OD readings at 450 nm (HIV p24 antigen) (HIV-1 (strain IIIB) [2]; 0.01 μM): 4.133
- OD readings at 450 nm (HIV p24 antigen) (HIV-1 (strain IIIB) [2]; 0.04 μM): 4.133
- OD readings at 450 nm (HIV p24 antigen) (HIV-1 (strain IIIB) [2]; 0.16 μM): 3.815
- OD readings at 450 nm (HIV p24 antigen) (HIV-1 (strain IIIB) [2]; 0.64 μM): 0.358
- OD readings at 540 nm (MTT assay) (HIV-1 (strain IIIB) [3]; 0.0025 μM): 0.474
- OD readings at 540 nm (MTT assay) (HIV-1 (strain IIIB) [3]; 0.01 μM): 0.641
- OD readings at 540 nm (MTT assay) (HIV-1 (strain IIIB) [3]; 0.04 μM): 0.678
- OD readings at 540 nm (MTT assay) (HIV-1 (strain IIIB) [3]; 0.16 μM): 0.688
- OD readings at 540 nm (MTT assay) (HIV-1 (strain IIIB) [3]; 0.64 μM): 0.946
- Calculated single treatment ED50 (HIV-1 (strain IIIB) [3]; MT-2 cells, MTT assay): 0.055 µM
- OD readings at 450 nm (HIV p24 antigen) (HIV-1 (strain IIIB) [6]; 0.0025 μM): 3.405
- OD readings at 450 nm (HIV p24 antigen) (HIV-1 (strain IIIB) [6]; 0.01 μM): 2.978
- OD readings at 450 nm (HIV p24 antigen) (HIV-1 (strain IIIB) [6]; 0.04 μM): 0.155
- OD readings at 450 nm (HIV p24 antigen) (HIV-1 (strain IIIB) [6]; 0.16 μM): 0.163
- OD readings at 450 nm (HIV p24 antigen) (HIV-1 (strain IIIB) [6]; 0.64 μM): 0.204
- Calculated single treatment ED50 (HIV-1 (strain IIIB) [6]; p24 assay): 0.021 µM
